In PubChem BioAssay AID248 (DTP/NCI, 2004):
Where “and” joins values, the source holds several entries; their conditions need not be identical. Equal entries are not always repeated. Inconclusive results and toxic doses are left out.

Tested on: L1210 leukemia ip in BDF1 mice, survival T/C
Experiment: NCI In Vivo Anticancer Drug Screen. Data for tumor model L1210 Leukemia (intraperitoneal) in B6D2F1 (BDF1) mice
Details: endpoint: mean survival time, higher = longer survival
In short: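 Tumor cells were implanted, animals were treated, and survival was followed. The result divides the treated measurement by the vehicle-control measurement.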

[1] = dose: 50.0 mg/kg/injection, schedule: Q01DX001 (ip), vehicle: saline
[2] = dose: 100.0 mg/kg/injection, schedule: Q01DX001 (ip), vehicle: saline
[3] = dose: 200.0 mg/kg/injection, schedule: Q01DX001 (ip), vehicle: saline
[4] = dose: 400.0 mg/kg/injection, schedule: Q01DX001 (ip), vehicle: saline
[5] = dose: 25.0 mg/kg/injection, schedule: Q01DX009 (ip), vehicle: saline
[6] = dose: 50.0 mg/kg/injection, schedule: Q01DX009 (ip), vehicle: saline
[7] = dose: 100.0 mg/kg/injection, schedule: Q04DX003 (ip), vehicle: saline
[8] = dose: 200.0 mg/kg/injection, schedule: Q04DX003 (ip), vehicle: saline
[9] = dose: 400.0 mg/kg/injection, schedule: Q04DX003 (ip), vehicle: saline
[10] = dose: 100.0 mg/kg/injection, schedule: Q01DX009 (ip), vehicle: saline with Tween-80
[11] = dose: 200.0 mg/kg/injection, schedule: Q01DX009 (ip), vehicle: saline with Tween-80
[12] = dose: 400.0 mg/kg/injection, schedule: Q01DX009 (ip), vehicle: saline with Tween-80
[13] = dose: 75.0 mg/kg/injection, schedule: Q01DX001 (ip), vehicle: other
[14] = dose: 100.0 mg/kg/injection, schedule: Q01DX001 (ip), vehicle: Klucel (hydroxypropylcellulose) (HPC)
[15] = dose: 200.0 mg/kg/injection, schedule: Q01DX001 (ip), vehicle: Klucel (hydroxypropylcellulose) (HPC)
[16] = dose: 100.0 mg/kg/injection, schedule: Q04DX003 (ip), vehicle: Klucel (hydroxypropylcellulose) (HPC)
[17] = dose: 200.0 mg/kg/injection, schedule: Q04DX003 (ip), vehicle: Klucel (hydroxypropylcellulose) (HPC)
[18] = dose: 400.0 mg/kg/injection, schedule: Q04DX003 (ip), vehicle: Klucel (hydroxypropylcellulose) (HPC)

SMILES: COc1ccc(CN2CCCN(Cc3ccc(OC)cc3OC)C2c2cc(Br)ccc2O)c(OC)c1
- T/C [1]: 97 % of control
- T/C [2]: 90 % of control
- T/C [3]: 92 % of control
- T/C [4]: 92 % of control

SMILES: COc1ccc(C(SCC(N)C(=O)O)(c2ccccc2)c2ccc(OC)cc2)cc1 (stereo unspecified)
- T/C (dose: 3.13 mg/kg/injection, schedule: Q01DX009 (ip), vehicle: saline): 98 % of control
- T/C (dose: 6.25 mg/kg/injection, schedule: Q01DX009 (ip), vehicle: saline): 120 % of control
- T/C (dose: 6.3 mg/kg/injection, schedule: Q01DX009 (ip), vehicle: other): 110 % of control
- T/C (dose: 12.5 mg/kg/injection, schedule: Q01DX009 (ip), vehicle: other): 117 % of control
- T/C [5]: 158 % of control
- T/C [6]: 96 % of control

SMILES: COC(=O)/C=C/C=C/c1ccc(Br)cc1
- T/C [7]: 91 % of control
- T/C [8]: 92 % of control
- T/C [9]: 92 % of control

SMILES: O=C(OCCBr)c1ccccc1[N+](=O)[O-]
- T/C [7]: 105 % of control
- T/C [8]: 97 % of control
- T/C [9]: 100 % of control

SMILES: CCCCCCCCC1OCC(C)O1 (stereo unspecified)
- T/C (dose: 24.0 mg/kg/injection, schedule: Q01DX Z (ip), vehicle: methylcellulose (MC)): 94 % of control and 92 % of control
- T/C (dose: 37.0 mg/kg/injection, schedule: Q01DX Z (ip), vehicle: methylcellulose (MC)): 96 % of control and 107 % of control
- T/C (dose: 55.0 mg/kg/injection, schedule: Q01DX Z (ip), vehicle: methylcellulose (MC)): 86 % of control
- T/C (dose: 82.5 mg/kg/injection, schedule: Q01DX Z (ip), vehicle: methylcellulose (MC)): 97 % of control and 92 % of control
- T/C (dose: 124.0 mg/kg/injection, schedule: Q01DX Z (ip), vehicle: methylcellulose (MC)): 94 % of control

SMILES: CC(C)N=C(N)CSS(=O)(=O)O
- T/C (dose: 25.0 mg/kg/injection, schedule: Q04DX002 (ip), vehicle: Klucel (hydroxypropylcellulose) (HPC)): 101 % of control
- T/C (dose: 50.0 mg/kg/injection, schedule: Q04DX002 (ip), vehicle: Klucel (hydroxypropylcellulose) (HPC)): 97 % of control
- T/C (dose: 100.0 mg/kg/injection, schedule: Q04DX002 (ip), vehicle: Klucel (hydroxypropylcellulose) (HPC)): 101 % of control and 102 % of control

SMILES: CCOC(=O)/C(=C/c1cccc2ccccc12)P(=O)(OCC)OCC
- T/C [1]: 97 % of control
- T/C [2]: 97 % of control
- T/C [3]: 103 % of control
- T/C [4]: 101 % of control

SMILES: Cc1nnc(N)s1
- T/C (dose: 100.0 mg/kg/injection, schedule: Q01DX001 (ip), vehicle: other): 102 % of control
- T/C [10]: 95 % of control
- T/C (dose: 100.0 mg/kg/injection, schedule: Q04DX003 (ip), vehicle: other): 104 % of control
- T/C (dose: 200.0 mg/kg/injection, schedule: Q01DX001 (ip), vehicle: other): 102 % of control
- T/C [11]: 92 % of control
- T/C (dose: 200.0 mg/kg/injection, schedule: Q04DX003 (ip), vehicle: other): 95 % of control
- T/C (dose: 400.0 mg/kg/injection, schedule: Q01DX001 (ip), vehicle: other): 100 % of control
- T/C [12]: 93 % of control
- T/C (dose: 400.0 mg/kg/injection, schedule: Q04DX003 (ip), vehicle: other): 98 % of control

SMILES: OC(C[n+]1ccccc1)c1c[nH]c2ccccc12 (stereo unspecified)
- T/C [13]: 107 % of control

SMILES: CC1CN=C(c2ccc(O)cc2)S1 (stereo unspecified)
- T/C [6]: 102 % of control
- T/C (dose: 100.0 mg/kg/injection, schedule: Q01DX005 (ip), vehicle: saline): 104 % of control
- T/C (dose: 100.0 mg/kg/injection, schedule: Q01DX009 (ip), vehicle: saline): 106 % of control
- T/C (dose: 100.0 mg/kg/injection, schedule: Q04DX002 (ip), vehicle: saline): 96 % of control
- T/C (dose: 200.0 mg/kg/injection, schedule: Q01DX005 (ip), vehicle: saline): 104 % of control
- T/C (dose: 200.0 mg/kg/injection, schedule: Q01DX009 (ip), vehicle: saline): 102 % of control
- T/C (dose: 200.0 mg/kg/injection, schedule: Q04DX002 (ip), vehicle: saline): 104 % of control
- T/C (dose: 400.0 mg/kg/injection, schedule: Q04DX002 (ip), vehicle: saline): 107 % of control

SMILES: CC1(C)CCC(NC(=O)N(CCF)N=O)CC1
- T/C (dose: 9.0 mg/kg/injection, schedule: Q01DX001 (ip), vehicle: other): 115 % of control
- T/C (dose: 13.0 mg/kg/injection, schedule: Q01DX001 (ip), vehicle: other): 122 % of control
- T/C (dose: 37.0 mg/kg/injection, schedule: Q01DX001 (ip), vehicle: other): 188 % of control
- T/C (dose: 50.0 mg/kg/injection, schedule: Q01DX001 (ip), vehicle: other): 352 % of control
- T/C [13]: 352 % of control

SMILES: COc1ccc(C(=O)c2ccc([N+](=O)[O-])cc2)c(OC)c1
- T/C [14]: 101 % of control
- T/C [15]: 111 % of control

SMILES: CC(=O)OC(c1ccccc1)C(Cl)(Cl)Cl (stereo unspecified)
- T/C [10]: 93 % of control
- T/C [11]: 104 % of control
- T/C [12]: 97 % of control

SMILES: C[n+]1cc2ccccc2c2ccccc21
- T/C (dose: 6.25 mg/kg/injection, schedule: Q01DX009 (ip), vehicle: water): 104 % of control
- T/C (dose: 12.5 mg/kg/injection, schedule: Q01DX009 (ip), vehicle: saline): 92 % of control
- T/C (dose: 12.5 mg/kg/injection, schedule: Q01DX009 (ip), vehicle: water): 120 % of control
- T/C (dose: 12.5 mg/kg/injection, schedule: Q04DX003 (ip), vehicle: saline): 101 % of control
- T/C (dose: 12.5 mg/kg/injection, schedule: Q04DX003 (ip), vehicle: water): 98 % of control
- T/C [5]: 112 % of control
- T/C (dose: 25.0 mg/kg/injection, schedule: Q01DX009 (ip), vehicle: water): 115 % of control
- T/C (dose: 25.0 mg/kg/injection, schedule: Q04DX003 (ip), vehicle: saline): 107 % of control
- T/C (dose: 25.0 mg/kg/injection, schedule: Q04DX003 (ip), vehicle: water): 107 % of control
- T/C [6]: 95 % of control
- T/C (dose: 50.0 mg/kg/injection, schedule: Q01DX009 (ip), vehicle: water): 93 % of control
- T/C (dose: 50.0 mg/kg/injection, schedule: Q04DX003 (ip), vehicle: saline): 107 % of control

SMILES: O=C(NOCc1cscn1)Nc1ccccc1
- T/C [2]: 101 % of control
- T/C [3]: 104 % of control
- T/C [4]: 104 % of control

SMILES: CCCCCC(C)(O)CC (stereo unspecified)
- T/C [2]: 93 % of control
- T/C [3]: 102 % of control
- T/C [4]: 96 % of control

SMILES: C#CCC#Cc1ccccc1
- T/C [10]: 89 % of control
- T/C [11]: 92 % of control

SMILES: O=[N+]([O-])c1ccc(Oc2cccc(C(F)(F)F)c2)c(Cl)c1
- T/C [14]: 94 % of control
- T/C [15]: 97 % of control
- T/C (dose: 400.0 mg/kg/injection, schedule: Q01DX001 (ip), vehicle: Klucel (hydroxypropylcellulose) (HPC)): 95 % of control

SMILES: CCCCCCCCCCCCCCCCS(=O)(=O)N/N=C(/c1ccc(N)cc1Cl)N1CCCCC1
- T/C [16]: 86 % of control
- T/C [17]: 94 % of control
- T/C [18]: 91 % of control

SMILES: COc1c(C)ccc([N+](=O)[O-])c1OC
- T/C (dose: 100.0 mg/kg/injection, schedule: Q04DX003 (ip), vehicle: saline with Tween-80): 94 % of control
- T/C (dose: 200.0 mg/kg/injection, schedule: Q04DX003 (ip), vehicle: saline with Tween-80): 97 % of control
- T/C (dose: 400.0 mg/kg/injection, schedule: Q04DX003 (ip), vehicle: saline with Tween-80): 97 % of control

SMILES: Cc1ncc(CS(=O)(=O)O)c(N)n1
- T/C (dose: 100.0 mg/kg/injection, schedule: Q01DX009 (ip), vehicle: Klucel (hydroxypropylcellulose) (HPC)): 92 % of control
- T/C [16]: 97 % of control
- T/C (dose: 200.0 mg/kg/injection, schedule: Q01DX009 (ip), vehicle: Klucel (hydroxypropylcellulose) (HPC)): 100 % of control
- T/C [17]: 98 % of control
- T/C (dose: 400.0 mg/kg/injection, schedule: Q01DX009 (ip), vehicle: Klucel (hydroxypropylcellulose) (HPC)): 98 % of control
- T/C [18]: 97 % of control
